# Data taken from ChEMBL document CHEMBL1212937, “Effect of synthetic peptides belonging to E2 envelope protein of GB virus C on human immunodeficiency virus type 1 infection” (J Med Chem, 2010).
# Peptide text beside a SMILES is read from it.
# Tests used:
# [1] = tested on: Human immunodeficiency virus 1; assay: Antiviral activity against R5 tropic HIV1 BAL infected in human PBMC cells assessed as concentration at which p24 antigen produced after 7 days by ELISA; assay type: functional
# [2] = tested on: Human immunodeficiency virus 1; assay: Antiviral activity against R5 tropic HIV1 BAL infected in human TZM-bl cells assessed as inhibition of virus-induced cytopathic effect; assay type: functional, organism-based; conditions: for IC50: Human immunodeficiency virus 1, BAL
# [3] = (§1) Inhibition of HIV1 gp41-induced cell-cell fusion between viral envolop expressing human HeLa cells to CD4 receptor expressing TZM-bl cells; assay type: cell-based, Human immunodeficiency virus 1
# [4] = tested on: HeLa; assay: as §1; assay type: cell-based; conditions: Human immunodeficiency virus 1
# [5] = tested on: Human immunodeficiency virus 1; assay: Antiviral activity against R5 tropic HIV1 HXB2 infected in human TZM-bl cells assessed as inhibition of virus-induced cytopathic effect; assay type: functional, organism-based; conditions: for IC50: Human immunodeficiency virus 1, HXB2, TZM-bl
# [6] = tested on: Human immunodeficiency virus 1; assay: Antiviral activity against R5X4 tropic HIV1 69/7 infected in human TZM-bl cells assessed as inhibition of virus-induced cytopathic effect; assay type: functional, organism-based; conditions: for IC50: Human immunodeficiency virus 1, 69/7, TZM-bl
# [7] = tested on: Human immunodeficiency virus 1; assay: Antiviral activity against R5 tropic HIV1 HXB2 infected in human PBMC cells assessed as concentration at which p24 antigen produced after 7 days by ELISA; assay type: functional
# [8] = Inhibition of HIV1 gp41 fusion by surface plasmon resonance; parameters: species or system Human immunodeficiency virus 1
# [9] = Inhibition of HIV1 gp41 fusion by isothermal titration; parameters: species or system Human immunodeficiency virus 1
# [10] = tested on: Human immunodeficiency virus 1; assay: Inhibition of HIV1 gp41 fusion peptide at compound to fusion peptide ratio of 5 by fluorimetry
Compound,IC50 [2] [µM],IC50 [3] [µM],IC50 [5] [µM],IC50 [6] [µM],Kd [8] [µM],Kd [9] [µM],inhibition [10] [%],IC50 [4] [µM],Activity [1] [µM],inhibition [2],inhibition [4],inhibition [5],inhibition [6],Activity [7] [µM]
CC[C@H](C)[C@H](NC(=O)[C@H](CS)NC(=O)[C@@H](NC(=O)[C@H](C)NC(=O)[C@H](CS)NC(=O)[C@@H]1CCCN1C(=O)[C@@H](NC(=O)CNC(=O)[C@H](Cc1c[nH]c2ccccc12)NC(=O)[C@H](CCC(=O)O)NC(=O)[C@H](CO)NC(=O)[C@H](CC(C)C)NC(=O)[C@H](CCC(=O)O)NC(=O)[C@@H](NC(=O)[C@@H](NC(=O)[C@@H](NC(=O)[C@@H](N)CC(=O)O)[C@@H](C)O)C(C)C)C(C)C)C(C)C)[C@@H](C)O)C(=O)N[C@@H](CC(C)C)C(=O)O (H-DTVVELSEWGVPCATCIL-OH),463,429,39.9,24.1,,,,,31.2,Dose-dependent effect,Dose-dependent effect,Dose-dependent effect,Dose-dependent effect,7.8
CC[C@H](C)[C@H](NC(=O)[C@H](C)NC(=O)[C@H](CCC(N)=O)NC(=O)[C@@H](CS)NC(=O)[C@H](Cc1ccccc1)NC(=O)[C@H](C)NC(=O)[C@@H]1CCCN1C(=O)[C@@H](N)CC(C)C)C(=O)NCC(=O)N[C@@H](Cc1c[nH]c2ccccc12)C(=O)NCC(=O)N[C@@H](CC(=O)O)C(=O)N1CCC[C@H]1C(=O)N[C@H](C(=O)N[C@H](C(=O)N[C@@H](Cc1cnc[nH]1)C(=O)N[C@@H](Cc1c[nH]c2ccccc12)C(=O)N[C@@H](CO)C(=O)O)[C@@H](C)O)[C@@H](C)CC,194,370,46,71.4,,,,,15.6,Dose-dependent effect,Dose-dependent effect,Dose-dependent effect,Dose-dependent effect,15.6
H-PITHWSHGQNRWPLSCPQ-OH,,509,,,,,,,,,Dose-dependent effect,,,
C[C@@H]1[C@H](O)[C@@H](C)/C=C/C=C/C=C/C=C/C=C/C=C/C=C/[C@H](O[C@@H]2O[C@H](C)[C@@H](O)[C@H](N)[C@@H]2O)C[C@@H]2O[C@](O)(C[C@@H](O)C[C@@H](O)[C@H](O)CC[C@@H](O)C[C@@H](O)CC(=O)O[C@H]1C)C[C@H](O)[C@H]2C(=O)O [AMPHOTERICIN B],0.136,,0.175,,,,,,,,,,,
CC[C@H](C)[C@H](NC(=O)[C@H](CS)NC(=O)[C@@H](NC(=O)[C@H](C)NC(=O)[C@H](CS)NC(=O)[C@@H]1CCCN1C(=O)[C@@H](NC(=O)CNC(=O)[C@H](Cc1c[nH]c2ccccc12)NC(=O)[C@H](CCC(=O)O)NC(=O)[C@H](CO)NC(=O)[C@H](CC(C)C)NC(=O)[C@H](CCC(=O)O)NC(=O)[C@@H](N)C(C)C)C(C)C)[C@@H](C)O)C(=O)N[C@@H](CC(C)C)C(=O)N[C@@H](CC(=O)O)C(=O)N[C@@H](CCCNC(=N)N)C(=O)N[C@@H](CCCNC(=N)N)C(=O)O (H-VELSEWGVPCATCILDRR-OH),140,331,58.6,20.1,,,,,7.8,Dose-dependent effect,Dose-dependent effect,Dose-dependent effect,Dose-dependent effect,7.8
CC(C)C[C@H](NC(=O)[C@H](CC(C)C)NC(=O)[C@@H](NC(=O)[C@@H](NC(=O)[C@H](CC(N)=O)NC(=O)CNC(=O)[C@H](CCCNC(=N)N)NC(=O)[C@H](CC(=O)O)NC(=O)[C@H](Cc1c[nH]c2ccccc12)NC(=O)[C@@H](NC(=O)[C@H](CCCCN)NC(=O)[C@H](CCC(=O)O)NC(=O)CNC(=O)[C@@H](N)[C@@H](C)O)C(C)C)C(C)C)[C@@H](C)O)C(=O)N[C@@H](CS)C(=O)N[C@@H](CC(=O)O)C(=O)N[C@@H](CS)C(=O)N1CCC[C@H]1C(=O)O (H-TGEKVWDRGNVTLLCDCP-OH),484,440,162,209,25.2,33.3,52.9,,62.5,Dose-dependent effect,Dose-dependent effect,Dose-dependent effect,Dose-dependent effect,31.2
H-HGQNRWPLSCPQYVYGSV-OH,,,,,,,,304,,,Dose-dependent effect,,,
H-WVNQLAVLGLPAVDAAVA-OH,94.7,333,,,,,,,15.6,Dose-dependent effect,Dose-dependent effect,Dose-dependent effect,Dose-dependent effect,7.8

# Continued, in another order:
IC50 [2] [µM],IC50 [3] [µM],IC50 [5] [µM],IC50 [6] [µM],Kd [8] [µM],Kd [9] [µM],inhibition [10] [%],IC50 [4] [µM],Compound,Activity [1] [µM],inhibition [2],inhibition [4],inhibition [5],inhibition [6],Activity [7] [µM]
295,687,37.5,60.8,,,,,H-LQEVDAGNFIPPPRWLLL-OH,15.6,Dose-dependent effect,Dose-dependent effect,Dose-dependent effect,Dose-dependent effect,7.8
,,,,17.6,20,17.9,,H-GRPDGFIHVQGHLQEVDA-OH,,,,,,
411,,237,119,,,,,H-SWFASTGGRDSKIDVWSL-OH,7.8,Dose-dependent effect,,Dose-dependent effect,Dose-dependent effect,62.5
506,141,48.8,43.7,58.6,63.6,59,,H-SDRDTVVELSEWGVPCAT-OH,62.5,Dose-dependent effect,Dose-dependent effect,Dose-dependent effect,Dose-dependent effect,31.2
126,348,70.1,111,,,,,H-FCQAIGWGDPITHWSHGQ-OH,15.6,Dose-dependent effect,Dose-dependent effect,Dose-dependent effect,Dose-dependent effect,7.8
,530,,,,,56.3,,CC(C)C[C@H](NC(=O)[C@H](CC(=O)O)NC(=O)[C@H](CCCCN)NC(=O)[C@@H](NC(=O)[C@H](CC(C)C)NC(=O)[C@H](CCCCN)NC(=O)[C@@H]1CCCN1C(=O)CNC(=O)[C@H](C)NC(=O)CNC(=O)[C@H](CS)NC(=O)[C@H](CCCNC(=N)N)NC(=O)[C@H](Cc1cnc[nH]1)NC(=O)[C@H](Cc1ccccc1)NC(=O)[C@@H]1CCCN1C(=O)[C@H](Cc1ccccc1)NC(=O)[C@@H](N)CCCNC(=N)N)[C@H](C)O)C(=O)N[C@@H](CCC(=O)O)C(=O)O,,,Dose-dependent effect,,,
,538,,,22.4,39.6,46,,H-LVRRRSELMGRRNPVCPG-OH,,,Dose-dependent effect,,,
